Data published in patent US20150018360A1, “COMPOSITIONS AND METHODS FOR TREATING METABOLIC DISORDERS” (BIOMED VALLEY DISCOVERIES, INC., priority 2011, published 2015).

Columns and labels:
[1] = Body weight of DIO mice during 15-day treatment; type: in vivo, mouse; settings: either time-point or dose (data not shown)
[2] = test system: diet-induced obese (DIO) mice; assay: Oral glucose tolerance test (OGTT) in diet-induced obese mice; type: in vivo, mouse; settings: for glucose lowering effects in OGTT (glucose AUC): DIO C57BL/6 mice, 125 mg/kg i.p. once daily for 5 days
Text: High-fat diet feeding in rodents changes multiple biochemical and physiological parameters that reflect the biochemical and physiological changes observed in diet induced obesity (D10). Such diets induce dramatic changes in weight gain that are concomitant with elevations in serum cholesterol, lipids, and triglycerides. Moreover, these high fat diets can lead to atherosclerotic lesions as well as insulin resistance and dysregulation of glucose homeostatic mechanisms that are consistent with obesity induced changes in humans.
Type II diabetes is characterized by high blood glucose levels in the presence of normal amounts of insulin. The animal model or type II diabetes used in these studies involves administering high levels of glucose and then measuring blood glucose levels over time. The test is designed to determine the ability of the experimental animal to maintain glucose homeostasis over time. Drugs that lower blood glucose levels in type II diabetic patients also lower blood glucose levels in this animal model of type II diabetes.
Male C57BL/6J mice were fed a high fat diet for 5 weeks (age 6-11 weeks) prior to study. […] DIO mice were food deprived overnight prior to glucose load (1.5 g/kg, t0). Mice were treated with drug or vehicle 30 minutes before glucose load (t-30). Blood glucose was measured with a glucometer (Accu-Chek® Roche, Indianapolis, IN), from the tip of the tail in free moving mice, at 15 minutes before (t-15), 15 minutes after (t15), and 45 minutes after (t45) glucose load.
In these studies, C57BL/6 mice were fed a high fat diet from 6 to 11 weeks of age, resulting in diet-induced obesity. […] After 5 days of dosing, animals were fasted overnight prior to an oral glucose tolerance test (OGTT). The morning after fasting, a baseline glucose level was measured, followed by compound or vehicle dosing. A second blood glucose level was measured 15 minutes later. At 30 minutes past the first glucose measurement, animals were challenged with a 1.5 g/kg glucose solution per os (p.o.), and blood glucose levels determined 15 and 45 minutes later. Areas under the curve were determined for the blood glucose levels, baselined at the first measurement.

[3] = target: Kir6.2/SUR1 potassium channels (Homo sapiens, UniProt Q09428+Q14654); assay: Kir6.2/SUR1 potassium channel patch clamp (PatchXpress) in HEK293 cells
Text: Inhibition is represented as % of control. “ns” represents not statistically significant or P>0.05.

[4] = target: T1, human recombinant dipeptidyl dipeptidase-4 (DPP4) (Homo sapiens, UniProt P27487); assay: Human recombinant DPP4 assay with fluorogenic substrate GP-AMC; type: biochemical; settings: 10 μM; % of control; ns
T1 construct: Cerep (contract laboratory that ran the assay)
Method: DPP4 inhibitor K579 was used as a positive control. Assay was performed by Cerep (Bois l'Eveque, France).
Inhibition is represented as % of control.

serum prolactin levels = settings: rat, cited from earlier work; for increase in serum prolactin levels: marker of dopamine D2 receptor blockade
[5] = test system: circulating prolactin levels; assay: Prolactin assay (plasma prolactin ELISA after OGTT); type: in vivo, mouse; settings: DIO mice, once daily i.p. for 5 days, plasma 45 min after glucose load
Method: Mice were treated with drug or vehicle 30 minutes before an OGTT (t-30). At 45 minutes after glucose load (t45), mice were bled via retro-orbital sinus into EDTA microfuge tubes. Plasma was rapidly prepared and stored at −80° C. until measurement of prolactin levels (ELISA kit, Genway Biotech, San Diego, Calif.).

dopamine D2/D3 receptors = settings: in-vitro assays; cited from earlier work
normal mice = assay: OGTT with plasma insulin determination in normal mice; type: in vivo, mouse; settings: single dose 10 mg/kg i.p.
Method: (§1) Normal male 12 week old C57BL/6J mice were food deprived 6 hours before the glucose load (1.5 g/kg, t0). Mice were treated with drug or vehicle 30 minutes before glucose load (t-30). Blood glucose was measured with a glucometer (Accu-Chek® Roche, Nutley, N.J.), from the tip of the tail in free moving mice, at t-30, t0, t15, t30, t60, t90, t120 minutes. Blood collection (about 20 μl) was performed from the tip of the tail at t-30, t15 and t30 for plasma insulin determination (ELISA kit, Alpco Diagnostics, Salem, N.H.). After a 1-week washout period, mice were randomly allocated into 2 groups. Mice were food deprived 6 hours before the glucose load (1.5 g/kg, t0) was performed. Mice were treated with drug or vehicle 30 minutes before glucose load. Blood glucose was measured at t0 and t15 minutes. At t15, mice were anesthetized with isoflurane and blood was collected from the hepatoportal vein (on EDTA/diprotin/ aprotinin anticoagulant cocktail). Plasma was rapidly prepared and stored at -80° C. The active form of GLP-1 was then measured (ELISA kit, Millipore, Billerica, Mass.).

active GLP-1 = assay: Active GLP-1 in hepatoportal vein blood of normal mice; type: in vivo, mouse; settings: 10 mg/kg i.p., 15 min after glucose bolus
Method: as §1

[6] = Pharmacokinetic analysis in mice (plasma, LC/MS/MS); type: in vivo, mouse; settings: normal male mice, 10 mg/kg i.p.
Method: Male C57B1/6 mice (n =4, two cohorts) were treated with drug and at the designated times after dosing (5, 15, 30, 60 and 120), whole blood was collected via the retro-orbital sinus in heparanized tubes and plasma prepared by centrifugation at 1650 relative centrifugal force (RCF) at 4° C. Plasma samples were extracted by a standard protocol using an acetonitrile/protein precipitation method, and levels of test agent were analyzed by LC/MS/MS.

Chain of Kir6.2/SUR1 potassium channels (Q14654 whole entry): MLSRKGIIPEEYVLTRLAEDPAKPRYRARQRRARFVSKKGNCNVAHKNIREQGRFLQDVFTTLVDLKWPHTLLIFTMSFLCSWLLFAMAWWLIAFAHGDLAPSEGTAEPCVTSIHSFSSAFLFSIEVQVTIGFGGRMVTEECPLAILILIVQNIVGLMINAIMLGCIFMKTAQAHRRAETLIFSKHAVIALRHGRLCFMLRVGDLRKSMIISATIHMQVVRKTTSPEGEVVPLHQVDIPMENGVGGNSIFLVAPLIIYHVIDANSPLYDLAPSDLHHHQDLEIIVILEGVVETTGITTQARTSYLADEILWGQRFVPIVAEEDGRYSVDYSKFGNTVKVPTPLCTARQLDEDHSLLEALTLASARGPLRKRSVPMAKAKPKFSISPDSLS
Chain of Kir6.2/SUR1 potassium channels (Q09428 whole entry): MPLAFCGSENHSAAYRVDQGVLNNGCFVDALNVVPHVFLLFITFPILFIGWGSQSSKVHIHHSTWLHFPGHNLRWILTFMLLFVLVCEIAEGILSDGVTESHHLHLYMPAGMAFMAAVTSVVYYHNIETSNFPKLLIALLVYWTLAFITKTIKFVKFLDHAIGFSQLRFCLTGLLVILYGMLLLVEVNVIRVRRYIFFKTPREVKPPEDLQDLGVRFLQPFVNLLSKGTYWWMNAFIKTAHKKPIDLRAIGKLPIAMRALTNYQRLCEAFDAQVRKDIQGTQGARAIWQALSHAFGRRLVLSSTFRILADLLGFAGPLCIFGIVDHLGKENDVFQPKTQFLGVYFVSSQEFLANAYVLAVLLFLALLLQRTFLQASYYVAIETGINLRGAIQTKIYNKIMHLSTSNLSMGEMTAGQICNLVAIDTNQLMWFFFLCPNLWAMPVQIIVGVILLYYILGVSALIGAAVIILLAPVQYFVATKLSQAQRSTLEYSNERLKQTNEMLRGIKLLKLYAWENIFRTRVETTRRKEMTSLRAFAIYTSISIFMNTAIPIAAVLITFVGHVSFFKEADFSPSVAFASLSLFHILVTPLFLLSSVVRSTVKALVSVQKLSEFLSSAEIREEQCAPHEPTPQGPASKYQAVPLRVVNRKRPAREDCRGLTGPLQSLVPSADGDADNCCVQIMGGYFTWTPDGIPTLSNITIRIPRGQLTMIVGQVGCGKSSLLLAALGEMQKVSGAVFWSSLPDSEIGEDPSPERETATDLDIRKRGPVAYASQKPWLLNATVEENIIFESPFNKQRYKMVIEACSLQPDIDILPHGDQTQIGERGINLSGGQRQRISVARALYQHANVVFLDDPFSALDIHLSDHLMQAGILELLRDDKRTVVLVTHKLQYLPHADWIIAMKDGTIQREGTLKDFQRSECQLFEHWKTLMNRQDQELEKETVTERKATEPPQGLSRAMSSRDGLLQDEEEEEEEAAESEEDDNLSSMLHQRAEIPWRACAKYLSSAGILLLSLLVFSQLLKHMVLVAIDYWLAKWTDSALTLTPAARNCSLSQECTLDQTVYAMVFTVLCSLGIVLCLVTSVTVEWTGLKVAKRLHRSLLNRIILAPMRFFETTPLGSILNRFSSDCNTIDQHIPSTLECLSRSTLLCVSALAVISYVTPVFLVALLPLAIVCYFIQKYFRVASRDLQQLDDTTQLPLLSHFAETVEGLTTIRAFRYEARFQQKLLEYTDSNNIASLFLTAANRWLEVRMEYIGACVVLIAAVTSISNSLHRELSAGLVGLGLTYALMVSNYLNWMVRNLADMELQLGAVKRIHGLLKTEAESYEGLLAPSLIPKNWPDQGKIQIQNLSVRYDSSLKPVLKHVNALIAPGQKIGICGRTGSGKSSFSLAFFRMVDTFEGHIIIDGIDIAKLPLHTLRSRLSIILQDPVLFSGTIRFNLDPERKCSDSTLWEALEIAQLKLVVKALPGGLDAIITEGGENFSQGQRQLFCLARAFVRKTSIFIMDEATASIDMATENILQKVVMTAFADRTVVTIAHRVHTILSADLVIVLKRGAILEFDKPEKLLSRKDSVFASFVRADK
T1 sequence (P27487 whole entry): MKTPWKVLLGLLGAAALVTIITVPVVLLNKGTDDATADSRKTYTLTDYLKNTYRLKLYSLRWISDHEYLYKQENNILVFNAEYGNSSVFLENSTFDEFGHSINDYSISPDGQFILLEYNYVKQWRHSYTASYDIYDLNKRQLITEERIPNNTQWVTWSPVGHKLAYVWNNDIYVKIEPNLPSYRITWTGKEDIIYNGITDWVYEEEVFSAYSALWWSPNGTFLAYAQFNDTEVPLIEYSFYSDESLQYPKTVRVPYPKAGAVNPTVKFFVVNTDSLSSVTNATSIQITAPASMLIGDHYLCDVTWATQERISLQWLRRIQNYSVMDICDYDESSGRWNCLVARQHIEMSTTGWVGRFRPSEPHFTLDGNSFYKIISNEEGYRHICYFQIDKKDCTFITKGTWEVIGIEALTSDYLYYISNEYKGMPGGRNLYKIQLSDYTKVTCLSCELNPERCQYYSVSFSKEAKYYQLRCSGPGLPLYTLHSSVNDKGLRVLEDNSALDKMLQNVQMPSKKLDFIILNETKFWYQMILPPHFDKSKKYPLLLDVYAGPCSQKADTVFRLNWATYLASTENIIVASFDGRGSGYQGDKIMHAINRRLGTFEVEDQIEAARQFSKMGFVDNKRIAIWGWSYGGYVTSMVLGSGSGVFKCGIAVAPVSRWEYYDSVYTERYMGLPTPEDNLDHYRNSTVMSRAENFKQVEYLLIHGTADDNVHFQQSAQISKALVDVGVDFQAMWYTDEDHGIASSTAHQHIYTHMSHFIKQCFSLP

CCN1CCCC1CNC(=O)c1cc(S(=O)(=O)CC)c(N)cc1OC (racemic) [(R/S)-amisulpride, amisulpride]
changes in body weight [1]: No changes | glucose lowering effects in OGTT (glucose AUC) [2]: glucose lowering effects | fasting blood glucose levels ([2]; DIO mice, 20 mg/kg, following 5 days of treatment, P<0.05 vs vehicle): 158.7 ± 7.5 mg/dL | glucose excursion during the OGTT ([2]; DIO mice, once daily i.p. for 15 days, both amisulpride doses, OGTT on days 5 and 15): significant reduction | % inhibition of Kir6.2/SUR1 ([3]; 10 μM, HEK293 cells, channel activated with 300 μM diazoxide, % of control, ns): 3.4 (2.4) % | effect on the sulphonylurea receptor in-vitro ([3]; in-vitro (Table 5)): unaffected | % inhibition of DPP4 [4]: 1.9 (2.0) %

CCN1CCCC1CNC(=O)c1cc(S(N)(=O)=O)ccc1OC (racemic) [(R/S)-sulpride]
glucose lowering effects in OGTT (glucose AUC) [2]: glucose lowering effects

CCN1CCC[C@@H]1CNC(=O)c1cc(S(=O)(=O)CC)c(N)cc1OC [(R)-amisulpride, (R)(+)-amisulpride]
increase in serum prolactin levels (serum prolactin levels): 1 fold | increase in ED50 required to reach maximal effect on prolactin, compared to (S)-amisulpride (serum prolactin levels): 40 fold | ED50 for effect on circulating prolactin levels [5]: 1.5 mg/kg | times less potent than (S)-amisulpride in displacing dopamine D2/D3 receptor ligands (dopamine D2/D3 receptors): 20-40 times | increase in circulating insulin levels compared to vehicle (normal mice; OGTT): approximately 2.5 fold | glucose excursions (normal mice; vs vehicle): significantly decreased | active form GLP-1 levels from the hepatic portal vein (active GLP-1): unchanged | maximal plasma drug levels [6]: did not exceed concentrations used in the in vitro assays

CCN1CCC[C@H]1CNC(=O)c1cc(S(=O)(=O)CC)c(N)cc1OC [(S)-amisulpride, (S)(−)-amisulpride]
increase in serum prolactin levels (serum prolactin levels): 4 fold | ED50 for effect on circulating prolactin levels [5]: 0.01 mg/kg
